Data taken from patent publication US11173446B2, “Process for removal of acid gases from a fluid stream” (BASF SE, priority 2017, dated 2021).

Assays:
[1] = pKa of the amino groups by titration with hydrochloric acid (Example 5); type: physicochemical; settings: 20° C.
[2] = Volatility of 30% by weight aqueous amine solutions (Example 4); type: physicochemical; settings: 30% by weight aqueous solutions, 50° C.

- pKA value, comparison in words [1]: greater than that of MDEA
Structure (SMILES): CC(C)(C)NCC(O)CO (centres unmarked) [TBAPD, 3-(tert-butylamino)propane-1,2-diol]
- volatility, comparison in words [2]: lower volatility compared to the M3ETB, TBAEE and MDEA
